Article PMC3758303 (PLoS ONE, 2013)

What was measured:
HCV-RNA in OR6 cells = test: Curing of OR6 cells by N-89 treatment (G418 selection, Western blot); assay type: cell-based, hepatitis C virus; conditions: 8 µM, 3 weeks, addition at 4-day intervals, absence of G418
Method: (§1) To date, IFN-α alone or IFN-γ alone has generally been used to prepare cured cells from the cells harboring HCV-RNA [36]. Since we observed strong anti-HCV activity (>99% suppression) at 8 µM of N-89 in OR6 cells or 1 µM of N-89 in ORL8 cells without a decrease in cell viability (Fig. 1B), we expected that these cells might be cured only by treatment with N-89. Accordingly, OR6 and ORL8 cells were treated with 8 µM and 1 µM of N-89, respectively, in the absence of G418. The treatment was continued for 3 weeks with the addition of N-89 at 4-day intervals.
(§2) Figure 3 OR6 and ORL8 cells were cured by treatment with only N-89. The treated cells were divided into two plates with or without G418, and then cultured for 2 weeks. The left panels show the cells stained with Coomassie brilliant blue. The right panels show the results of Western blot analysis of the treated and non-treated cells for HCV proteins. Western blot analysis was performed as described in Fig. 1B.

HCV-RNA in ORL8 cells = test: Curing of ORL8 cells by N-89 treatment (G418 selection, Western blot); assay type: cell-based, hepatitis C virus; conditions: 1 µM, 3 weeks, addition at 4-day intervals, absence of G418
Method: as §1, §2

[1] = tested on: HCV-RNA replication in ORL8 cells; test: Comparative time course RL assay in ORL8 cells; assay type: cell-based, hepatitis C virus
Method: We next performed a time course assay (2 to 72 hrs after treatment) in the case of ORL8 cells treated with N-89 (0.1 µM or 1 µM) or IFN-α (1 IU/ml; corresponding to approximately EC80). ORL8 cells treated with IFN-α (1 IU/ml) and N-89 (1 µM) had almost the same anti-HCV kinetics over the first […] after treatment (upper panel of Fig. 4); however, within the first 12 hrs after treatment N-89-treated ORL8 cells had more rapid anti-HCV kinetics than did the IFN-α-treated cells (lower panel of Fig. 4).
Figure 4 The anti-HCV action of N-89 was faster than that of IFN-α. The ORL8 cells were treated with N-89 or IFN-α, and then RL assays were performed at 2 to 72 hrs after the treatment. The relative value (%) calculated at each time point, when the luciferase activity of non-treated cells at 24 hrs was assigned as 100%, is shown. Data are expressed as the means±standard deviation of triplicate assays. […] To evaluate this possibility, we examined the effect of VE on N-89 at the EC90 level in the ORL8 assay. […] Similar results were obtained by using N-251 (Fig. 5C and D). […] However, an antimalarial drug, artemisinin, was hardly influenced by co-treatment with VE (Fig. 5E). The value (1.9) of artemisinin was almost the same as that (3.5 or 2.5) of IFN-α or the control, respectively (Fig. 5F).

mice = tested on: mice; parameters: method as in PMID 11428929, PMID 17273878, PMID 12723958; conditions: cited from earlier work
rats = tested on: rats; parameters: method as in PMID 11428929, PMID 17273878, PMID 12723958; conditions: cited from earlier work
Plasmodium berghei = tested on: Plasmodium berghei; parameters: method as in PMID 11428929, PMID 17273878, PMID 12723958; conditions: cited from earlier work
malaria parasites = tested on: malaria parasites; parameters: method as in PMID 21501696, PMID 21924377; conditions: compared with N-89; cited from earlier work

Structure (SMILES) | curing of HCV-RNA-replicating cells (HCV-RNA in OR6 cells) | curing of HCV-RNA-replicating cells (HCV-RNA in ORL8 cells) | time after treatment at which RL activity was significantly decreased ([1]; 0.1 µM) [h] | time after treatment at which RL activity was significantly decreased ([1]; 1 µM) [h] | 50% lethal dose (mice) [mg/kg] | 50% lethal dose (rats) [mg/kg] | antimalarial activity in vivo (Plasmodium berghei) | potency against malaria parasites (malaria parasites)
C1CCCCCC2(CCCCC1)OOCCCOO2 [N-89, 1,2,6,7-Tetraoxaspiro[7.11]nonadecane] | cured | cured | 9 | 6 | > 2000 | > 2000 | potent antimalarial activity | 
OCCCCCCC1COOC2(CCCCCCCCCCC2)OOC1 [N-251, 6-(1,2,6,7-tetraoxaspiro[7.11]nonadec-4-yl)hexan-1-ol] |  |  |  |  |  |  |  | as potent as N-89
